Measurements: a compilation of properties of binary mixtures (doi:10.1021/acs.jced.2c00033)

Assay: xn = mol fraction of the nth substance listed
Conditions: 100 kPa

O + CCCC[n+]1ccn(C)c1.[Br-]
x2 = 0
Conditions	viscosity [mPa·s]
313.15 K	0.684
323.15 K	0.58
333.15 K	0.492
343.15 K	0.429

CCCn1cc[n+](C)c1.[Br-] + O
viscosity [mPa·s]
Conditions	303.15 K	313.15 K	323.15 K	333.15 K	343.15 K
x1 = 0.0497	1.67	1.31	–	0.899	0.767
x1 = 0.0992	3.1	2.39	1.9	1.55	1.29
x1 = 0.1984	7.88	5.81	4.46	3.53	2.81
x1 = 0.4005	–	19.6	13.9	10.2	7.82
x1 = 0.5756	87.4	52.6	34	23.2	16.7

O + CCCn1cc[n+](C)c1.[Br-]
x2 = 0
Conditions	viscosity [mPa·s]
303.15 K	0.834
313.15 K	0.684
323.15 K	0.58

CC[n+]1ccn(C)c1.[Br-] + O
viscosity [mPa·s]
Conditions	x1 = 0.049	x1 = 0.0997	x1 = 0.1466	x1 = 0.1978	x1 = 0.2501	x1 = 0.3881	x1 = 0.543
303.15 K	–	2.42	3.55	–	6.71	13	28.2
313.15 K	1.14	1.9	2.72	4.1	5.07	9.59	19.4
323.15 K	0.944	1.57	2.21	3.27	3.99	7.31	14.3
333.15 K	–	1.3	1.85	2.66	3.21	5.76	11.1
343.15 K	0.688	1.12	1.53	2.2	2.65	4.59	8.6

O + CC[n+]1ccn(C)c1.[Br-]
x2 = 0
Conditions	viscosity [mPa·s]
313.15 K	0.684
333.15 K	0.492

CCCC[n+]1ccn(C)c1.[Br-] + O
viscosity [mPa·s]
Conditions	x1 = 0.05	x1 = 0.0992	x1 = 0.1481	x1 = 0.1979	x1 = 0.2517	x1 = 0.3882
303.15 K	–	–	5.93	8.78	12	–
313.15 K	1.56	2.58	4.3	6.08	8.65	–
323.15 K	1.27	2.06	3.43	4.79	6.49	–
333.15 K	–	–	2.71	–	–	–
343.15 K	0.888	1.37	2.2	2.91	3.89	7.98
